Like-named read-outs stand apart in the source and are kept apart here.

The text below walks through data of patent US20260209189A1, “ISOXAZOLINE-SUBSTITUTED BENZAMIDE COMPOUND AND APPLICATION THEREOF” (priority 2022, published 2026).

Holding throughout (type): in vivo
The test system of one test is Tetranychus urticae. In words: Insecticidal activity assay, peanut leaf dip, adult mite. The note with it: 48 h. As to the method:
(§1) The compound of the present invention was dissolved in acetone, and then diluted with water into liquids with gradients of different concentrations (ppm). Corn leaves were soaked in liquids of different concentrations for about 20 seconds, air-dried and then placed in petri dishes where 3rd instar Spodoptera frugiperda were placed, respectively; kale leaves were soaked in liquids of different concentrations for about 20 seconds, air-dried and then placed in petri dishes where 3rd instar Spodoptera frugiperda were placed, respectively; peanut leaves were soaked in liquids of different concentrations for about 20 seconds, air-dried and then placed in petri dishes where Tetranychus urticae (adult mite) and Aphis craccivora (adult aphid) were placed, respectively; water bamboo leaves were soaked in liquids of different concentrations for about 20 seconds, air-dried and then placed in petri dishes where 4th instar Chilo suppressalis were placed, respectively. Each petri dish was placed with 10 insects, covered and then stored at 25° C. in a constant temperature room. The number of dead insects were checked after 48 h. The dead insect rate was calculated by the formula: Death rate (%)=(Number of dead insects/Number of test insects)×100. Furthermore, the experiment was conducted in two replications.

Test [1] has as its system Spodoptera frugiperda. In words: Insecticidal activity assay, corn leaf dip, 3rd instar larvae. The note with it: liquid concentration 0.3 ppm, 48 h. How it is done:
as §1

Another test concerns Spodoptera exigua. In words: Insecticidal activity assay, kale leaf dip, 3rd instar larvae. As to conditions: liquid concentration 0.3 ppm, 48 h.
The test system of test [2] is Spodoptera frugiperda. The test can be described thus: Assay of insecticidal activity of compositions (synergism), 3rd instar. As to conditions: for pest or weed control at 1 µg/mL: B 1 ppm; for pest or weed control at 50 µg/mL: B 50 ppm. How it is done: as §1
• Test targets: Spodoptera frugiperda (3rd instar) and Aphis gossypii (adult aphid) […]
(§2) Different ratios within the selected ratio range were set for toxicity determination, and the optimal ratio was selected according to synergistic effects. When the synergistic effect >0, it indicated a synergistic effect; when the synergistic effect is close to 0, it indicated an addition effect; when the synergistic effect <0, it indicated an antagonistic effect.
(§3) [formula] • wherein, P1, P2—Death rate by each individual agent in a mixed formulation.

The test system of the next test is Aphis gossypii. In words: Assay of insecticidal activity of compositions (synergism), zucchini leaves, adult aphid. As to conditions: for pest or weed control at 5 µg/mL: B 5 ppm. As to the method:
as §1
• Test targets: Spodoptera frugiperda (3rd instar) and Aphis gossypii (adult aphid)
Referring to the above-mentioned Insecticidal activity assay, when the test target was Aphis gossypii, the zucchini leaves were selected.
as §2, §3

A further test concerns Aphis craccivora. The test can be described thus: Insecticidal activity assay, peanut leaf dip, adult aphid. As to conditions: liquid concentration 8.1 ppm, 48 h. How it is done: as §1
[3] abbreviates: 48 h, read-out: Death rate by individual B.
The mark [4] stands for this setting: 48 h, B 2 ppm, read-out: Death rate by individual B.
[5] abbreviates: in Cucurbita pepo, 48 h, read-out: Death rate by individual B.

In the case of `C=CCOC(=O)C(C)NC(=O)c1ccc(C2=NOC(c3cc(Cl)c(Cl)c(C(F)(F)F)c3)(C(F)(F)F)C2)cc1C` (mixture of isomers) [41 (2R)], the Death rate with Tetranychus urticae (liquid concentration 0.9 ppm) came to 75%. `C#CCOC(=O)C(C)NC(=O)c1ccc(C2=NOC(c3cc(Cl)c(Cl)c(C(F)(F)F)c3)(C(F)(F)F)C2)cc1C` (mixture of isomers) [43 (2R)]: in the test on Tetranychus urticae (liquid concentration 0.9 ppm), the Death rate turned out to be 85%.

In the test on Tetranychus urticae (liquid concentration 8.1 ppm), `Cc1cc(C2=NOC(c3cc(Cl)c(Cl)c(C(F)(F)F)c3)(C(F)(F)F)C2)ccc1C(=O)NC(C)C(=O)OCCO` (mixture of isomers) [57 (2R)] registered a Death rate of 90%.

As to `COC(=O)C(Cc1ccccc1)NC(=O)c1ccc(C2=NOC(c3cc(Cl)c(Cl)c(C(F)(F)F)c3)(C(F)(F)F)C2)cc1C` (mixture of isomers) [131 (2R)], the Death rate in the test on Tetranychus urticae (liquid concentration 8.1 ppm) is on record as 80%. `COC(=O)C(C)NC(=O)c1ccc(C2=NOC(c3cc(Cl)c(Cl)c(C(F)(F)F)c3)(C(F)(F)F)C2)cc1C(C)C` (mixture of isomers) [141 (2R)] returned a Death rate with Spodoptera frugiperda [1] of 90%. Take `COC(=O)C(CC(N)=O)NC(=O)c1ccc(C2=NOC(c3cc(Cl)c(Cl)c(C(F)(F)F)c3)(C(F)(F)F)C2)cc1C` (mixture of isomers) [179 (2R)]: the Death rate in the test with Tetranychus urticae (liquid concentration 8.1 ppm) stood at 80%.

In turn, `COC(=O)C(CCSC)NC(=O)c1ccc(C2=NOC(c3cc(Cl)c(Cl)c(C(F)(F)F)c3)(C(F)(F)F)C2)cc1C` (mixture of isomers) [180 (2R)] had a Death rate in the test with Tetranychus urticae (liquid concentration 8.1 ppm) of 45%. Same read-out and setting: with `COC(=O)C(C)NC(=O)c1ccc(C2=NOC(c3cc(F)c(F)c(C(F)(F)F)c3)(C(F)(F)F)C2)cc1C` (mixture of isomers) [181 (2R)] the figure was 70%. `COC(=O)C(C)NC(=O)c1ccc(C2=NOC(c3cc(Cl)c(OC)c(C(F)(F)F)c3)(C(F)(F)F)C2)cc1C` (mixture of isomers) [183 (2R)]: the Death rate with Spodoptera frugiperda [1] and with Spodoptera exigua was 100% throughout. `COC(=O)C(C)NC(=O)c1ccc(C2=NOC(c3cc(Cl)c(SC)c(C(F)(F)F)c3)(C(F)(F)F)C2)cc1C` (mixture of isomers) [187 (2R)]: the Death rate in the test on Tetranychus urticae (liquid concentration 8.1 ppm) is 63%. For the molecule `Cc1c(COC(=O)[C@@H]2[C@H](/C=C(\Cl)C(F)(F)F)C2(C)C)cccc1-c1ccccc1` (racemic) [Bifenthrin, reference compound], the pest or weed control at 1 µg/mL with Spodoptera frugiperda [2] (setting [3]) was 22%. As to `CC1(C)[C@H](C(=O)O[C@H](C#N)c2cccc(Oc3ccccc3)c2)[C@@H]1/C=C(\Cl)C(F)(F)F` (racemic) [lambda-cyhalothrin, lambda-Cyhalothrin, reference compound], the pest or weed control at 2 µg/mL with Spodoptera frugiperda [2] (setting [4]) worked out at 41%. Regarding `COP(=O)(NC(C)=O)SC` (centres unmarked) [Acephate, reference compound], in the test on Spodoptera frugiperda [2] (setting [3]), the pest or weed control at 300 µg/mL was found to be 38%. Take `C/C(=N\C#N)N(C)Cc1ccc(Cl)nc1` [Acetamiprid, reference compound]: the pest or weed control at 1 µg/mL in the test with Aphis gossypii (in Cucurbita pepo, 48 h, B 1 ppm, read-out: Death rate by individual B) came out at 52%.

As for `C[C@]1(COC(=O)C2CC2)[C@@H]2C[C@H](O)[C@@]3(C)Oc4cc(-c5cccnc5)oc(=O)c4[C@H](O)[C@@H]3[C@@]2(C)CC[C@@H]1OC(=O)C1CC1` [Afidopyropen, reference compound], the “Death rate by individual B” value in the test on Aphis gossypii (B 1 ppm) amounted to 68%.

As for `CC(C)N1C(=O)N(c2ccccc2)CS/C1=N\C(C)(C)C` [Buprofezin, reference compound], the pest or weed control at 10 µg/mL in the test on Spodoptera frugiperda [2] (48 h, B 10 ppm, read-out: Death rate by individual B) was determined as 36%. As for `CNC(=O)c1cc(Cl)cc(C)c1NC(=O)c1cc(Br)nn1-c1ncccc1Cl` [Chlorantraniliprole, reference compound], in the test with Spodoptera frugiperda [2] (48 h, B 0.5 ppm, read-out: Death rate by individual B), the pest or weed control at 0.5 µg/mL is 50%. In the case of `CCOCn1c(-c2ccc(Cl)cc2)c(C#N)c(Br)c1C(F)(F)F` [Chlorfenapyr, reference compound], the pest or weed control at 50 µg/mL with Spodoptera frugiperda [2] (setting [3]) amounted to 59%. Take `CN/C(=N\[N+](=O)[O-])NCc1cnc(Cl)s1` [Clothianidin, reference compound]: in the test with Aphis gossypii (setting [5]), the pest or weed control at 5 µg/mL is 42%. In turn, `COC(=O)[C@@H](C)N(C)C(=O)c1ccc(C2=NOC(c3cc(Cl)c(Cl)c(C(F)(F)F)c3)(C(F)(F)F)C2)cc1C` (stereo partly drawn) [Compound 4 (2R)] returned a Death rate in the test with Spodoptera frugiperda [1] of 100%. `CCOC(=O)[C@@H](C)NC(=O)c1ccc(C2=NOC(c3cc(Cl)c(Cl)c(C(F)(F)F)c3)(C(F)(F)F)C2)cc1C` (stereo partly drawn) [Compound 30 (2R)]: the Death rate with Spodoptera frugiperda [1] came to 90%; in the test with Tetranychus urticae (liquid concentration 0.9 ppm) it was 80%.

In the case of `COC(=O)C(NC(=O)c1ccc(C2=NOC(c3cc(Cl)c(Cl)c(C(F)(F)F)c3)(C(F)(F)F)C2)cc1C)C(C)C` (centres unmarked) [Compound 111], the Death rate in the test with Spodoptera exigua came out at 60%; in the test with Aphis craccivora, 40%. As to `COC(=O)C(NC(=O)c1ccc(C2=NOC(c3cc(Cl)c(Cl)c(C(F)(F)F)c3)(C(F)(F)F)C2)cc1C)C1CC1` (centres unmarked) [Compound 118], the Death rate in the test with Spodoptera exigua was determined as 60%; in the test with Aphis craccivora, 40%. Regarding `COC(=O)C(NC(=O)c1ccc(C2=NOC(c3cc(Cl)c(Cl)c(C(F)(F)F)c3)(C(F)(F)F)C2)cc1C)OC` (centres unmarked) [Compound 124], the Death rate with Spodoptera frugiperda [1] amounted to 80%; in the test with Tetranychus urticae (liquid concentration 8.1 ppm), 77%; with Spodoptera exigua, 70%. In the case of `Cc1cc(C2=NOC(c3cc(Cl)c(Cl)c(C(F)(F)F)c3)(C(F)(F)F)C2)ccc1C(=O)N[C@H](C)C(=O)O` (stereo partly drawn) [Compound 151 (2R)], the Death rate with Tetranychus urticae (liquid concentration 8.1 ppm) is 100%.

Molecule `Cc1cc(C2=NOC(c3cc(Cl)c(Cl)c(C(F)(F)F)c3)(C(F)(F)F)C2)ccc1C(=O)NC(C)C(=O)O` [Compound 151 (5S, 2R)] showed a Death rate in the test with Tetranychus urticae (liquid concentration 8.1 ppm) of 100%.

Turning to `COC(=O)C(C)NC(=O)c1ccc(C2=NOC(c3cc(Cl)c(OC)c(C(F)(F)F)c3)(C(F)(F)F)C2)cc1C` [Compound 183 (5S, 2R)], in the test with Tetranychus urticae (liquid concentration 8.1 ppm), the Death rate was 70%. For `CNC(=O)c1cc(C#N)cc(C)c1NC(=O)c1cc(Br)nn1-c1ncccc1Cl` [Cyantraniliprole, reference compound], the pest or weed control at 5 µg/mL with Aphis gossypii (setting [5]) came out at 36%. For the molecule `CCn1nc(C)cc1/C(OC(=O)C(C)(C)C)=C(/C#N)c1ccc(C(C)(C)C)cc1` [Cyetpyrafen, reference compound], the “Death rate by individual B” value with Spodoptera frugiperda [2] (B 100 ppm) is given as 30%.

Take `CC(C)c1cc(Oc2ccccc2)cc(C(C)C)c1NC(=S)NC(C)(C)C` [Diafenthiuron, reference compound]: in the test on Spodoptera frugiperda [2] (setting [3]), the pest or weed control at 100 µg/mL was 49%. `CN/C(=N/CC1CCOC1)N[N+](=O)[O-]` (centres unmarked) [Dinotefuran, reference compound]: the pest or weed control at 5 µg/mL in the test with Aphis gossypii (setting [5]) came out at 40%. Turning to `CC[S+]([O-])c1c(C#N)nn(-c2c(Cl)cc(C(F)(F)F)cc2Cl)c1N` (centres unmarked) [Ethiprole, reference compound], in the test on Aphis gossypii (setting [5]), the pest or weed control at 5 µg/mL came out at 33%. For `N#Cc1nn(-c2c(Cl)cc(C(F)(F)F)cc2Cl)c(N)c1[S+]([O-])C(F)(F)F` (centres unmarked) [Fipronil, reference compound], the pest or weed control at 1 µg/mL with Spodoptera frugiperda [2] (setting [3]) was 43%.

For the molecule `COC(=O)N(C(=O)N1CO[C@@]2(C(=O)OC)Cc3cc(Cl)ccc3C2=N1)c1ccc(OC(F)(F)F)cc1` [Indoxacarb, reference compound], the “Death rate by individual B” value with Spodoptera frugiperda [2] (B 0.5 ppm) was 36%.

On to `O=C(NC(=O)c1c(F)cccc1F)Nc1cc(Cl)c(OC(F)(F)C(F)C(F)(F)F)cc1Cl` (centres unmarked) [Lufenuron, reference compound], for which, in the test with Spodoptera frugiperda [2] (setting [3]), the pest or weed control at 50 µg/mL stood at 38%. In the case of `COc1cccc(C(=O)NN(C(=O)c2cc(C)cc(C)c2)C(C)(C)C)c1C` [Methoxyfenozide, reference compound], the pest or weed control at 2 µg/mL in the test with Spodoptera frugiperda [2] (setting [4]) amounted to 31%. `CC1=NNC(=O)N(/N=C/c2cccnc2)C1` [Pymetrozine, reference compound]: the pest or weed control at 50 µg/mL in the test with Spodoptera frugiperda [2] (setting [3]) came out at 30%. Regarding `Cc1cc(C)c(C2=C(OC(=O)CC(C)(C)C)C3(CCCC3)OC2=O)c(C)c1` [Spiromesifen, reference compound], the “Death rate by individual B” value in the test on Spodoptera frugiperda [2] (B 100 ppm) is 49%. In the case of `CCOC(=O)OC1=C(c2c(C)cc(Cl)cc2C)C(=O)N(C)C12CCN(OC)CC2` [Spiropidion, reference compound], the “Death rate by individual B” value in the test on Spodoptera frugiperda [2] (B 2 ppm) came out at 39%. In the case of `CCOC(=O)OC1=C(c2cc(C)ccc2C)C(=O)N[C@]12CC[C@@H](OC)CC2` [Spirotetramat, reference compound], in the test with Spodoptera frugiperda [2] (48 h, B 100 ppm, read-out: Death rate by individual B), the pest or weed control at 100 µg/mL came to 47%. Regarding `O=c1c(-c2cccc(C(F)(F)F)c2)c([O-])[n+](Cc2cncnc2)c2ccccn12` [Triflumezopyrim, reference compound], the “Death rate by individual B” value in the test with Spodoptera frugiperda [2] (B 100 ppm) is 33%. Same read-out and setting: the value for Abamectin [reference compound] was 25%.

On to Emamectin-benzoate [reference compound], for which, in the test on Spodoptera frugiperda [2] (B 2 ppm), the “Death rate by individual B” value came out at 37%. As for Spinetoram [reference compound], the “Death rate by individual B” value with Spodoptera frugiperda [2] (B 0.5 ppm) is reported as 62%.
